The text below walks through data of ChEMBL document CHEMBL3046800, “Tricyclic cyanoguanidines: synthesis, site of action and insecticidal activity of a novel class of reversible acetylcholinesterase inhibitors” (2002).

What all share (format): functional
One test deals with Nephotettix cincticeps. Put plainly: Insecticidal activity against Nephotettix cincticeps (green rice leafhopper) infested in compound-pretreated rice seedling measured 6 days post-infestation.
For a further test, the system named is Nilaparvata lugens. Put plainly: Insecticidal activity against Nilaparvata lugens (brown planthopper) infested in compound-pretreated rice seedling measured 6 days post-infestation.
The test system of the next test is Peregrinus maidis. Put plainly: Insecticidal activity against Peregrinus maidis (corn hopper) infested compound-pretreated corn seed measured 6 days post-infestation.

As for `CC12CC(N/C(=N/C#N)N1)c1cc([N+](=O)[O-])ccc1O2` (stereo not drawn), the LC80 in the test on Nephotettix cincticeps is reported as less than 10 ppm; in the test with Nilaparvata lugens, greater than 100 ppm; in the test on Peregrinus maidis it was less than 250 ppm.

Consider `C#CCN1/C(=N/C#N)NC2(C)CC1c1ccccc1O2` (stereo not drawn), for which the LC80 is less than 10 ppm in the test with Nephotettix cincticeps, less than 10 ppm with Nilaparvata lugens and greater than 250 ppm in the test on Peregrinus maidis.

As to `CC(=O)N1/C(=N/C#N)NC2(C)CC1c1ccc(F)cc1O2` (stereo not drawn), the LC80 with Nephotettix cincticeps was greater than 100 ppm; in the test with Nilaparvata lugens it was greater than 100 ppm; with Peregrinus maidis, greater than 250 ppm.

Regarding `CC(=O)N1/C(=N/C#N)NC2Cc3ccccc3C1C2` (stereo not drawn), the LC80 is less than 10 ppm in the test with Nephotettix cincticeps and greater than 250 ppm with Peregrinus maidis.

With `CC12CC(N/C(=N/C#N)N1)c1cc(Br)cc(Br)c1O2` (stereo not drawn), the LC80 in the test on Nephotettix cincticeps is greater than 100 ppm; with Nilaparvata lugens, greater than 100 ppm; in the test with Peregrinus maidis, less than 10 ppm.

In the case of `COc1cccc2c1C1CC(C)(N/C(=N\C#N)N1)O2` (stereo not drawn), the LC80 is recorded as greater than 100 ppm in the test on Nephotettix cincticeps, greater than 100 ppm with Nilaparvata lugens and less than 50 ppm in the test on Peregrinus maidis.

In the case of `COC(=O)N1/C(=N/C#N)NC2(C)CC1c1ccccc1O2` (stereo not drawn), the LC80 in the test on Nephotettix cincticeps is less than 10 ppm; in the test on Nilaparvata lugens, less than 10 ppm; with Peregrinus maidis, greater than 250 ppm.

On to `CC12CC(c3ccccc3O1)N(C(=O)C(F)(F)F)/C(=N/C#N)N2` (stereo not drawn), for which the LC80 in the test on Nephotettix cincticeps is greater than 100 ppm; in the test with Nilaparvata lugens, greater than 100 ppm; with Peregrinus maidis, less than 250 ppm.

For `CCC(=O)N1/C(=N/C#N)NC2(C)CC1c1ccccc1O2` (stereo not drawn), the values for the LC80 in the test with Nephotettix cincticeps, in the test on Nilaparvata lugens and in the test with Peregrinus maidis were less than 100 ppm, less than 10 ppm and less than 250 ppm, respectively.

For the molecule `N#C/N=C1/NC2CC(c3ccccc3)(N1)Oc1ccccc12` (stereo not drawn), the LC80 in the test with Nephotettix cincticeps was less than 10 ppm; with Nilaparvata lugens it was greater than 100 ppm; in the test with Peregrinus maidis it was less than 50 ppm.

On to `N#C/N=C1\NC2Cc3ccccc3C(C2)N1` (stereo not drawn), for which the results for the LC80 in the test on Nephotettix cincticeps, in the test on Nilaparvata lugens and in the test with Peregrinus maidis were less than 10 ppm, less than 100 ppm and less than 2.5 ppm, respectively.

Regarding `CC1c2ccccc2C2CC1N/C(=N\C#N)N2` (stereo not drawn), the LC80 was less than 10 ppm in the test on Nephotettix cincticeps and less than 2.5 ppm with Peregrinus maidis.

As for `C[C@H]1[C@H]2N/C(=N/C#N)N[C@]1(C)Cc1ccccc12` (relative stereo), the LC80 with Nephotettix cincticeps is less than 1 ppm; in the test on Peregrinus maidis, less than 2.5 ppm.

Regarding `CC12CC(N/C(=N/C#N)N1)c1cc(Cl)cc(Cl)c1O2` (stereo not drawn), the LC80 in the test on Nephotettix cincticeps is on record as greater than 100 ppm; with Nilaparvata lugens, greater than 100 ppm; in the test on Peregrinus maidis, greater than 250 ppm.

Consider `Cc1cccc2c1OC1(C)CC2N/C(=N/C#N)N1` (stereo not drawn), for which the LC80 in the test with Nephotettix cincticeps is given as greater than 100 ppm; with Nilaparvata lugens, greater than 100 ppm; with Peregrinus maidis it was greater than 250 ppm.

As to `CCC12CC(N/C(=N/C#N)N1)c1ccccc1O2` (stereo not drawn), the LC80 with Nephotettix cincticeps is given as greater than 100 ppm; in the test with Nilaparvata lugens, less than 10 ppm; with Peregrinus maidis, greater than 250 ppm.

As to `CC12CC(N/C(=N/C#N)N1)c1cc(N)ccc1O2` (stereo not drawn), the results for the LC80 in the test with Nephotettix cincticeps, with Nilaparvata lugens and in the test with Peregrinus maidis were less than 10 ppm, greater than 100 ppm and greater than 250 ppm, respectively.

Take `CC(=O)N1/C(=N/C#N)NC2(C)CC1c1ccccc1O2` (stereo not drawn): the results for the LC80 in the test with Nephotettix cincticeps, in the test on Nilaparvata lugens and in the test with Peregrinus maidis were less than 10 ppm, less than 10 ppm and less than 250 ppm, respectively.

As for `C=CCN1/C(=N/C#N)NC2(C)CC1c1ccccc1O2` (stereo not drawn), the LC80 is given as greater than 100 ppm with Nephotettix cincticeps, less than 100 ppm with Nilaparvata lugens and greater than 250 ppm with Peregrinus maidis.

As for `CCC1C2N/C(=N\C#N)NC1c1ccccc1O2` (mixture of isomers), the values for the LC80 in the test with Nilaparvata lugens and with Peregrinus maidis were greater than 100 ppm and less than 250 ppm, respectively.

`CC12CC(c3ccccc3O1)N(C[Si](C)(C)C)/C(=N/C#N)N2` (stereo not drawn): the LC80 in the test with Nephotettix cincticeps is reported as greater than 100 ppm; in the test with Nilaparvata lugens it was less than 100 ppm; in the test with Peregrinus maidis, greater than 250 ppm.

For `COC(=O)CN1/C(=N/C#N)NC2(C)CC1c1ccccc1O2` (stereo not drawn), the LC80 with Nephotettix cincticeps is recorded as less than 100 ppm; with Nilaparvata lugens, less than 100 ppm; in the test on Peregrinus maidis it was less than 50 ppm.

As for `CN1/C(=N/C#N)NC2(C)CC1c1ccc(F)cc1O2` (stereo not drawn), the LC80 in the test on Peregrinus maidis was less than 10 ppm.

For `CC12CC(N/C(=N/C#N)N1)c1ccc(Cl)cc1O2` (stereo not drawn), the LC80 in the test on Nephotettix cincticeps is recorded as greater than 100 ppm; with Nilaparvata lugens, less than 100 ppm; in the test on Peregrinus maidis, less than 50 ppm.

For the molecule `CC12CC(N/C(=N/C#N)N1)c1c(Cl)cc(Cl)cc1O2` (stereo not drawn), the LC80 is recorded as less than 10 ppm in the test with Nephotettix cincticeps, greater than 100 ppm in the test on Nilaparvata lugens and less than 250 ppm with Peregrinus maidis.

For the molecule `CC1C2N/C(=N\C#N)NC1c1ccccc1O2` (mixture of isomers), the LC80 was greater than 100 ppm with Nephotettix cincticeps, less than 100 ppm in the test on Nilaparvata lugens and greater than 250 ppm with Peregrinus maidis.

For the molecule `CC12CC(N/C(=N/C#N)N1)c1cc(C(C)(C)C)cc(C(C)(C)C)c1O2` (stereo not drawn), the LC80 is greater than 100 ppm with Nephotettix cincticeps, greater than 100 ppm with Nilaparvata lugens and greater than 250 ppm in the test with Peregrinus maidis.

`N#C/N=C1\NC2CC(N1)c1ccccc1O2` (stereo not drawn): the LC80 with Nephotettix cincticeps is greater than 100 ppm; in the test with Nilaparvata lugens it was less than 100 ppm; in the test with Peregrinus maidis, less than 50 ppm.

Regarding `CN1/C(=N/C#N)NC2(C)CC1c1ccccc1O2` (stereo not drawn), the results for the LC80 with Nephotettix cincticeps, in the test with Nilaparvata lugens and in the test with Peregrinus maidis were less than 100 ppm, less than 10 ppm and greater than 250 ppm, respectively.

Consider `C[C@H]1[C@H]2N/C(=N/C#N)N[C@]1(C)Oc1ccccc12` (relative stereo), for which the figures for the LC80 with Nephotettix cincticeps, with Nilaparvata lugens and in the test with Peregrinus maidis were less than 1 ppm, less than 100 ppm and greater than 250 ppm, respectively.

Turning to `CC12CC(c3ccccc3O1)N(Cc1ccccc1)/C(=N/C#N)N2` (stereo not drawn), the LC80 is reported as less than 100 ppm in the test on Nephotettix cincticeps, greater than 100 ppm in the test with Nilaparvata lugens and greater than 250 ppm with Peregrinus maidis.

Consider `Cc1ccc2c(c1)C1CC(C)(N/C(=N\C#N)N1)O2` (stereo not drawn), for which the LC80 is on record as less than 100 ppm in the test on Nephotettix cincticeps, greater than 100 ppm with Nilaparvata lugens and greater than 250 ppm in the test on Peregrinus maidis.

As for `COc1ccc2c(c1OC)OC1(C)CC2N/C(=N/C#N)N1` (stereo not drawn), the LC80 in the test on Nephotettix cincticeps is greater than 100 ppm; with Nilaparvata lugens it was greater than 100 ppm; in the test on Peregrinus maidis, less than 250 ppm.

As to `CC12CC(c3ccccc3O1)N(Cc1ccccn1)/C(=N/C#N)N2` (stereo not drawn), the figures for the LC80 with Nephotettix cincticeps, in the test on Nilaparvata lugens and in the test on Peregrinus maidis were greater than 100 ppm, less than 100 ppm and less than 50 ppm, respectively.

For the molecule `C[C@H]1[C@H]2Cc3ccccc3[C@@H]1N/C(=N/C#N)N2` (relative stereo), the LC80 in the test on Nilaparvata lugens is less than 10 ppm; with Peregrinus maidis it was less than 250 ppm.

Turning to `CC(C)C(=O)N1/C(=N/C#N)NC2(C)CC1c1ccccc1O2` (stereo not drawn), the values for the LC80 in the test on Nephotettix cincticeps, in the test on Nilaparvata lugens and with Peregrinus maidis were greater than 100 ppm, less than 10 ppm and greater than 250 ppm, respectively.

For the molecule `CC12CC(c3ccccc3O1)N(S(C)(=O)=O)/C(=N/C#N)N2` (stereo not drawn), the LC80 with Nephotettix cincticeps is reported as greater than 100 ppm; in the test on Nilaparvata lugens, greater than 100 ppm; in the test with Peregrinus maidis it was less than 50 ppm.

Regarding `CN1/C(=N/C#N)N(C)C2(C)CC1c1ccccc1O2` (stereo not drawn), the LC80 with Nephotettix cincticeps was greater than 100 ppm; in the test with Nilaparvata lugens, less than 10 ppm; with Peregrinus maidis, greater than 250 ppm.

For the molecule `CCC12N/C(=N\C#N)NC(c3ccccc3O1)C2C` (mixture of isomers), the LC80 was greater than 100 ppm with Nephotettix cincticeps, greater than 100 ppm in the test with Nilaparvata lugens and greater than 250 ppm with Peregrinus maidis.

Turning to `CCN1/C(=N/C#N)NC2(C)CC1c1ccccc1O2` (stereo not drawn), the figures for the LC80 in the test with Nephotettix cincticeps, with Nilaparvata lugens and in the test with Peregrinus maidis were greater than 100 ppm, less than 10 ppm and greater than 250 ppm, respectively.

As to `C[C@@H]1[C@H]2N/C(=N/C#N)N[C@]1(C)Cc1ccccc12` (relative stereo), the LC80 in the test with Nilaparvata lugens is reported as less than 1 ppm; with Peregrinus maidis it was less than 10 ppm.

For the molecule `CC12CC(N/C(=N/C#N)N1)c1ccc(F)cc1O2` (stereo not drawn), the LC80 in the test on Nephotettix cincticeps was greater than 100 ppm; in the test with Nilaparvata lugens it was less than 10 ppm; in the test on Peregrinus maidis it was less than 250 ppm.

As for `COC(=O)N1/C(=N/C#N)NC2(C)CC1c1ccc(F)cc1O2` (stereo not drawn), the LC80 was less than 10 ppm with Nephotettix cincticeps and less than 250 ppm in the test on Peregrinus maidis.

Take `CC12CC(N/C(=N/C#N)N1)c1cccc(F)c1O2` (stereo not drawn): the LC80 in the test with Nephotettix cincticeps was greater than 100 ppm; with Nilaparvata lugens, greater than 100 ppm; with Peregrinus maidis it was greater than 250 ppm.

Take `CC(=O)N1/C(=N\C#N)NC2CC1Cc1ccccc12` (stereo not drawn): the LC80 with Nilaparvata lugens is greater than 100 ppm; in the test with Peregrinus maidis it was less than 10 ppm.

Consider `C[C@@H]1[C@H]2Cc3ccccc3[C@@H]1N/C(=N/C#N)N2` (relative stereo), for which the LC80 in the test with Nephotettix cincticeps was less than 0.1 ppm; in the test on Nilaparvata lugens it was less than 100 ppm; with Peregrinus maidis, less than 250 ppm.

As for `C[C@@H]1[C@H]2N/C(=N/C#N)N[C@]1(C)Oc1ccccc12` (relative stereo), the results for the LC80 in the test with Nephotettix cincticeps, in the test on Nilaparvata lugens and with Peregrinus maidis were greater than 100 ppm, less than 1 ppm and less than 50 ppm, respectively.

With `CCC1C2N/C(=N/C#N)NC1(C)Oc1ccccc12` (stereo not drawn), the LC80 in the test with Nephotettix cincticeps was less than 10 ppm; in the test with Nilaparvata lugens, greater than 100 ppm; in the test on Peregrinus maidis, greater than 250 ppm.

Take `CC12CC(N/C(=N/C#N)N1)c1cc(OC(F)(F)F)ccc1O2` (stereo not drawn): the LC80 in the test on Nephotettix cincticeps is on record as greater than 100 ppm; with Nilaparvata lugens, greater than 100 ppm; in the test with Peregrinus maidis, greater than 250 ppm.

For the molecule `CC12CC(N/C(=N/C#N)N1)c1cc(Cl)ccc1O2` (stereo not drawn), the LC80 in the test with Nephotettix cincticeps is greater than 100 ppm; in the test with Nilaparvata lugens, greater than 100 ppm; in the test with Peregrinus maidis, greater than 250 ppm.

On to `CCCC(=O)N1/C(=N/C#N)NC2(C)CC1c1ccccc1O2` (stereo not drawn), for which the LC80 in the test with Nephotettix cincticeps is less than 100 ppm; with Nilaparvata lugens, less than 10 ppm; with Peregrinus maidis, greater than 250 ppm.
